# Laboratory results reported in paper PMC6151383 (Molecules : A Journal of Synthetic Chemistry and Natural …, 2017).
# Like-named read-outs stand apart in the source and are kept apart here.
# How the values were obtained:
# Candida krusei E28 = experiment: Antifungal microdilution broth MIC, C. krusei; assay type: cell-based; conditions: Pichia kudriavzevii
# Candida glabrata 20/I = experiment: Antifungal microdilution broth MIC, C. glabrata; assay type: cell-based; conditions: Nakaseomyces glabratus, 48 h incubation, read-out: MIC CG 48 h
# [1] = tested on: Pseudomonas aeruginosa CCM 1961; experiment: Antibacterial microdilution broth MIC, P. aeruginosa; assay type: cell-based; conditions: 48 h incubation, read-out: MIC PA 48 h
# Trichosporon asahii 1188 = experiment: Antifungal microdilution broth MIC, T. asahii; assay type: cell-based
# [2] = tested on: Klebsiella pneumoniae D 11750/08
# [3] = tested on: Lichtheimia corymbifera 272; experiment: Antifungal microdilution broth MIC, L. corymbifera; assay type: cell-based
# [4] = tested on: Candida albicans ATCC 44859; experiment: Antifungal microdilution broth MIC, C. albicans; assay type: cell-based
# [5] = tested on: Mycobacterium tuberculosis 331/88 (H37Rv); experiment: In vitro antimycobacterial MIC, M. tuberculosis; assay type: cell-based
# [6] = tested on: Trichophyton interdigitale 445; experiment: Antifungal microdilution broth MIC, T. interdigitale; assay type: cell-based
# [7] = tested on: Aspergillus fumigatus 231; experiment: Antifungal microdilution broth MIC, A. fumigatus; assay type: cell-based
# [8] = tested on: ESBL-positive Klebsiella pneumoniae J 14368/08
# [9] = tested on: Enterococcus faecalis J 14365/08; experiment: Antibacterial microdilution broth MIC, E. faecalis; assay type: cell-based
# [10] = tested on: Staphylococcus epidermidis H 6966/08; experiment: Antibacterial microdilution broth MIC, S. epidermidis; assay type: cell-based
# [11] = tested on: Mycobacterium avium 330/88; experiment: In vitro antimycobacterial MIC, M. avium; assay type: cell-based
# Candida tropicalis 156 = experiment: Antifungal microdilution broth MIC, C. tropicalis; assay type: cell-based
# [12] = tested on: yeasts (Candida sp., T. asahii); experiment: Antifungal activity against yeasts; assay type: cell-based; conditions: read-out: MIC for yeasts
# [13] = tested on: Mycobacterium kansasii 235/80; experiment: In vitro antimycobacterial MIC, M. kansasii 235/80; assay type: cell-based
# M. kansasii 6509/96 = experiment: In vitro antimycobacterial MIC, M. kansasii clinical isolate; assay type: cell-based; conditions: Mycobacterium kansasii
# [14] = tested on: Escherichia coli CCM 4517; experiment: Antibacterial microdilution broth MIC, E. coli; assay type: cell-based
# [15] = tested on: Staphylococcus aureus CCM 4516/08; experiment: Antibacterial microdilution broth MIC, S. aureus; assay type: cell-based
# [16] = tested on: Klebsiella pneumoniae D 11750/08; experiment: Antibacterial microdilution broth MIC, K. pneumoniae; conditions: 48 h incubation
# [17] = E28, 48 h incubation, read-out: MIC CK 48 h
# [18] = Pseudomonas aeruginosa, CCM1961
# [19] = Trichosporon asahii, 1188, 48 h incubation, read-out: MIC TA 48 h
# [20] = Lichtheimia corymbifera, 272, 48 h incubation, read-out: MIC LC 48 h
# [21] = ATCC44859, 48 h incubation, read-out: MIC CA 48 h
# [22] = 336 h, 14 d incubation, read-out: MIC Mtb. 331/88 14 d
# [23] = 504 h, 21 d incubation, read-out: MIC Mtb. 331/88 21 d
# [24] = Trichophyton interdigitale, 445, 72 h incubation, read-out: MIC TI 72 h
# [25] = Trichophyton interdigitale, 445, 120 h incubation, read-out: MIC TI 120 h
# [26] = Aspergillus fumigatus, 231, 24 h, read-out: MIC AF 24 h
# [27] = Aspergillus fumigatus, 231, 48 h, read-out: MIC AF 48 h
# [28] = Enterococcus faecalis, J14365/08, 48 h incubation, read-out: MIC EF 48 h
# [29] = Staphylococcus epidermidis, H6966/08, 48 h incubation, read-out: MIC SE 48 h
# [30] = Staphylococcus epidermidis, H6966/08, incubation time not given, read-out: MIC for S. epidermidis
# [31] = 330/88, 336 h, 14 d incubation, read-out: MIC M. avium 330/88 14 d
# [32] = 330/88, 504 h, 21 d incubation, read-out: MIC M. avium 330/88 21 d
# [33] = Candida tropicalis, 156, 48 h incubation, read-out: MIC CT 48 h
# [34] = 235/80, 168 h, 7 d incubation, read-out: MIC M. kansasii 235/80 7 d
# [35] = 235/80, 336 h, 14 d incubation, read-out: MIC M. kansasii 235/80 14 d
# [36] = 235/80, 504 h, 21 d incubation, read-out: MIC M. kansasii 235/80 21 d
# [37] = 6509/96, 168 h, 7 d incubation, read-out: MIC M. kansasii 6509/96 7 d
# [38] = 6509/96, 336 h, 14 d incubation, read-out: MIC M. kansasii 6509/96 14 d
# [39] = 6509/96, 504 h, 21 d incubation, read-out: MIC M. kansasii 6509/96 21 d
# [40] = Escherichia coli, CCM4517, 48 h incubation, read-out: MIC EC 48 h
# [41] = Staphylococcus aureus, CCM4516, 48 h incubation, read-out: MIC SA 48 h
# [42] = E28, 24 h, read-out: MIC CK 24 h
# [43] = E28, 48 h, read-out: MIC CK 48 h
# [44] = Trichosporon asahii, 1188, 24 h, read-out: MIC TA 24 h
# [45] = Trichosporon asahii, 1188, 48 h, read-out: MIC TA 48 h
# [46] = Trichophyton interdigitale, 445, 72 h, read-out: MIC TI 72 h
# [47] = Trichophyton interdigitale, 445, 120 h, read-out: MIC TI 120 h
# [48] = Aspergillus fumigatus, 231, 48 h incubation, read-out: MIC AF 48 h
# [49] = Candida tropicalis, 156, 24 h, read-out: MIC CT 24 h
# [50] = Candida tropicalis, 156, 48 h, read-out: MIC CT 48 h
Compound,MIC (Candida glabrata 20/I) [µM],"MIC [1, 18] [µM]",MIC KP 24 h [2] [µM],MIC KP 48 h [2] [µM],"MIC [3, 20] [µM]","MIC [4, 21] [µM]","MIC [5, 22] [µM]","MIC [5, 23] [µM]",MIC KP-E 24 h [8] [µM],MIC KP-E 48 h ([8]; 48 h) [µM],"MIC [9, 28] [µM]","MIC [10, 29] [µM]","MIC [11, 31] [µM]","MIC [11, 32] [µM]","MIC [13, 34] [µM]","MIC [13, 35] [µM]","MIC [13, 36] [µM]",MIC (M. kansasii 6509/96; [37]) [µM],MIC (M. kansasii 6509/96; [38]) [µM],MIC (M. kansasii 6509/96; [39]) [µM],also measured
"O=S(=O)(Nc1ncccn1)c1ccc(N=Cc2cc(O)ccc2O)cc1 [Compound 2i, 4-[(2,5-Dihydroxybenzylidene)amino]-N-(pyrimidin-2-yl)benzenesulfonamide]",15.6,500,>500,>500,500,15.6,125,125,>500,>500,250,15.6,500,1000,62.5,125,125,62.5,125,125,"MIC (Candida krusei E28; [17]): 31.2 µM; MIC (Trichosporon asahii 1188; [19]): 15.6 µM; MIC [6, 24]: 1.95 µM; MIC [6, 25]: 1.95 µM; MIC [7, 26]: 125 µM; MIC [7, 27]: 125 µM; MIC [10, 30]: 15.6 µM; MIC (Candida tropicalis 156; [33]): 15.6 µM; MIC ([12]; range over Candida sp. and T. asahii): 15.6 to 31.2 µM; MIC [14, 40]: 500 µM; MIC ([15]; Staphylococcus aureus, CCM 4516 / MRSA, S. aureus incl. MRSA, incubation time not given, read-out: MIC for S. aureus): 31.2 µM; MIC [15, 41]: 31.2 µM"
"O=S(=O)(Nc1ncccn1)c1ccc(N=Cc2cc(Cl)cc(Cl)c2O)cc1 [Compound 2m, 4-[(3,5-Dichloro-2-hydroxybenzylidene)amino]-N-(pyrimidin-2-yl)benzenesulfonamide]",31.2,> 500,>500,>500,500,–,125,125,500,500,> 500,31.2,250,500,125,250,500,62.5,125,250,"MIC (Candida krusei E28; [42]): 62.5 µM; MIC (Candida krusei E28; [43]): 62.5 µM; MIC (Trichosporon asahii 1188; [44]): 62.5 µM; MIC (Trichosporon asahii 1188; [45]): 62.5 µM; MIC ([4]; ATCC44859, 24 h, read-out: MIC CA 24 h): 62.5 µM; MIC ([4]; ATCC44859, 48 h, read-out: MIC CA 48 h): 62.5 µM; MIC [6, 46]: 125 µM; MIC [6, 47]: 125 µM; MIC [7, 48]: 250 µM; MIC (Candida tropicalis 156; [49]): 125 µM; MIC (Candida tropicalis 156; [50]): 125 µM; MIC [12]: 31.2 to 125 µM; MIC [14, 40]: > 500 µM; MIC ([15]; Staphylococcus aureus, CCM4516, 24 h, read-out: MIC SA 24 h): 62.5 µM; MIC ([15]; Staphylococcus aureus, CCM4516, 48 h, read-out: MIC SA 48 h): 62.5 µM"
"O=S(=O)(Nc1ncccn1)c1ccc(N=Cc2cc(Cl)cc(Br)c2O)cc1 [Compound 2n, 4-[(3-Bromo-5-chloro-2-hydroxybenzylidene)amino]-N-(pyrimidin-2-yl)benzenesulfonamide]",31.2,> 500,>500,>500,500,31.2,125,125,500,500,> 500,31.2,250,500,125,125,250,62.5,125,125,"MIC (Candida krusei E28; [42]): 62.5 µM; MIC (Candida krusei E28; [43]): 62.5 µM; MIC (Trichosporon asahii 1188; [44]): 62.5 µM; MIC (Trichosporon asahii 1188; [45]): 62.5 µM; MIC [6, 46]: 62.5 µM; MIC [6, 47]: 62.5 µM; MIC [7, 48]: 250 µM; MIC (Candida tropicalis 156; [49]): 62.5 µM; MIC (Candida tropicalis 156; [50]): 62.5 µM; MIC [12]: 31.2 to 125 µM; MIC [14, 40]: 500 µM; MIC [15, 41]: 31.2 µM"
"O=S(=O)(Nc1ncccn1)c1ccc(N=Cc2cc(I)cc(I)c2O)cc1 [Compound 2p, 4-[(2-Hydroxy-3,5-diiodobenzylidene)amino]-N-(pyrimidin-2-yl)benzenesulfonamide]",3.9,500,–,–,–,3.9,250,250,–,–,–,7.81,250,500,125,250,250,62.5,125,250,"MIC (Candida krusei E28; [17]): 7.81 µM; MIC KP 48 h [16]: 125 µM; MIC (Trichosporon asahii 1188; [19]): 3.9 µM; MIC ([3]; Lichtheimia corymbifera, 272, 24 h, read-out: MIC LC 24 h): 62.5 µM; MIC ([3]; Lichtheimia corymbifera, 272, 48 h, read-out: MIC LC 48 h): 62.5 µM; MIC [6, 24]: 15.6 µM; MIC [6, 25]: 15.6 µM; MIC [7, 26]: 62.5 µM; MIC [7, 27]: 62.5 µM; MIC KP-E 48 h ([8]; 48 h incubation): 125 µM; MIC ([9]; Enterococcus faecalis, J14365/08, 24 h, read-out: MIC EF 24 h): 125 µM; MIC ([9]; Enterococcus faecalis, J14365/08, 48 h, read-out: MIC EF 48 h): 125 µM; MIC [10, 30]: 7.81 µM; MIC (Candida tropicalis 156; [33]): 7.81 µM; MIC ([14]; Escherichia coli, CCM4517, 24 h, read-out: MIC EC 24 h): 125 µM; MIC ([14]; Escherichia coli, CCM4517, 48 h, read-out: MIC EC 48 h): 125 µM; MIC [15, 41]: 7.81 µM"
Bacitracin [reference compound],–,–,–,–,–,–,–,–,–,–,–,–,–,–,–,–,–,–,–,–,"MIC KP 48 h [16]: >500 µM; MIC [1]: >500 µM; MIC KP-E 48 h ([8]; 48 h incubation): >500 µM; MIC ([9]; 48 h incubation, read-out: MIC EF 48 h): 62.5 µM; MIC ([10]; 48 h incubation, read-out: MIC SE 48 h): 31.25 µM; MIC ([14]; 48 h incubation, read-out: MIC EC 48 h): >500 µM; MIC ([15]; 48 h incubation, read-out: MIC SA 48 h): 15.62 µM"
